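Growth conditions: 96-well plates. Treatment: test compound, 48 hours, 5 concentrations. Analysis: linear interpolation between bracketing concentrations; unreached endpoints set to highest concentration. GI50 = concentration required for 50% inhibition of growth. At the TGI there is no net growth.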
Legend:
Assay in all cases: NCI tumour cell line growth inhibition, 48 h; in the data active = GI50 below about 0.43 µM; inactive = the rest
HL-60(TB) leukemia = test system: HL-60(TB) leukemia
TK-10 renal = test system: TK-10 renal
K-562 leukemia = test system: K-562 leukemia
SK-MEL-5 melanoma = test system: SK-MEL-5 melanoma
SN12C renal = test system: SN12C renal
NCI-H226 lung = test system: NCI-H226 lung
SF-295 CNS = test system: SF-295 CNS
NCI-H23 lung = test system: NCI-H23 lung
MDA-MB-231 breast = test system: MDA-MB-231 breast
SNB-75 CNS = test system: SNB-75 CNS
COLO 205 colon = test system: COLO 205 colon
T-47D breast = test system: T-47D breast
PC-3 prostate = test system: PC-3 prostate
MOLT-4 leukemia = test system: MOLT-4 leukemia
SR leukemia = test system: SR leukemia
IGROV1 ovarian = test system: IGROV1 ovarian
CAKI-1 renal = test system: CAKI-1 renal
UO-31 renal = test system: UO-31 renal
LOX IMVI melanoma = test system: LOX IMVI melanoma
M14 melanoma = test system: M14 melanoma
OVCAR-5 ovarian = test system: OVCAR-5 ovarian
HCT-116 colon = test system: HCT-116 colon
KM12 colon = test system: KM12 colon
MDA-MB-435 = test system: MDA-MB-435
SNB-19 CNS = test system: SNB-19 CNS
MCF7 breast = test system: MCF7 breast
NCI-H522 lung = test system: NCI-H522 lung
SF-268 CNS = test system: SF-268 CNS
HCT-15 colon = test system: HCT-15 colon
HOP-62 NSCLC = test system: HOP-62 NSCLC
DU-145 prostate = test system: DU-145 prostate
BT-549 breast = test system: BT-549 breast
OVCAR-8 ovarian = test system: OVCAR-8 ovarian
EKVX NSCLC = test system: EKVX NSCLC
SK-OV-3 ovarian = test system: SK-OV-3 ovarian
SK-MEL-2 melanoma = test system: SK-MEL-2 melanoma
HT29 colon = test system: HT29 colon
UACC-257 melanoma = test system: UACC-257 melanoma
SK-MEL-28 melanoma = test system: SK-MEL-28 melanoma
UACC-62 melanoma = test system: UACC-62 melanoma
A498 renal = test system: A498 renal
U251 CNS = test system: U251 CNS
RPMI-8226 leukemia = test system: RPMI-8226 leukemia
NCI-H460 lung = test system: NCI-H460 lung
OVCAR-4 ovarian = test system: OVCAR-4 ovarian
A549 NSCLC = test system: A549 NSCLC
ACHN renal = test system: ACHN renal
SF-539 CNS = test system: SF-539 CNS
OVCAR-3 ovarian = test system: OVCAR-3 ovarian
HCC-2998 colon = test system: HCC-2998 colon
HOP-92 NSCLC = test system: HOP-92 NSCLC
NCI/ADR-RES ovarian = test system: NCI/ADR-RES ovarian
SW-620 colon = test system: SW-620 colon
786-0 renal = test system: 786-0 renal

CS(=O)(=O)O[C@H]1C(=O)N(c2cc3c4ccccc4ccc3c3ccccc23)[C@@H]1c1ccccc1
830 nM: TGI (CAKI-1 renal)
> 86900 nM: TGI (TK-10 renal)
inactive: GI50 (HL-60(TB) leukemia) 532 nM | GI50 (TK-10 renal) 616 nM | GI50 (K-562 leukemia) 731 nM | GI50 (SK-MEL-5 melanoma) 766 nM | GI50 (SN12C renal) 567 nM | GI50 (NCI-H226 lung) > 100000 nM | GI50 (NCI-H23 lung) 753 nM | GI50 (MDA-MB-231 breast) 836 nM | GI50 (SNB-75 CNS) 656 nM | GI50 (COLO 205 colon) 693 nM | GI50 (T-47D breast) > 100000 nM | GI50 (PC-3 prostate) 561 nM | GI50 (MOLT-4 leukemia) > 100000 nM | GI50 (IGROV1 ovarian) > 100000 nM | GI50 (UO-31 renal) 3440 nM | GI50 (LOX IMVI melanoma) 526 nM | GI50 (M14 melanoma) 809 nM | GI50 (OVCAR-5 ovarian) 574 nM | GI50 (MCF7 breast) 4330 nM | GI50 (NCI-H522 lung) 1110 nM | GI50 (SF-268 CNS) 588 nM | GI50 (DU-145 prostate) 819 nM | GI50 (SK-OV-3 ovarian) 2310 nM | GI50 (HT29 colon) 474 nM | GI50 (UACC-257 melanoma) > 38100 nM | GI50 (SK-MEL-28 melanoma) > 100000 nM | GI50 (A498 renal) 545 nM | GI50 (U251 CNS) 457 nM | GI50 (RPMI-8226 leukemia) 844 nM | GI50 (NCI-H460 lung) 1590 nM | GI50 (OVCAR-4 ovarian) > 100000 nM | GI50 (A549 NSCLC) 2180 nM | GI50 (SF-539 CNS) 710 nM | GI50 (HCC-2998 colon) 439 nM | GI50 (SW-620 colon) 874 nM
active: GI50 (SF-295 CNS) 99.5 nM | GI50 (SR leukemia) 355 nM | GI50 (CAKI-1 renal) 74.7 nM | GI50 (HCT-116 colon) 313 nM | GI50 (KM12 colon) 216 nM | GI50 (MDA-MB-435) 23.2 nM | GI50 (HCT-15 colon) 408 nM | GI50 (HOP-62 NSCLC) 388 nM | GI50 (BT-549 breast) 170 nM | GI50 (EKVX NSCLC) 342 nM | GI50 (UACC-62 melanoma) 240 nM | GI50 (ACHN renal) 332 nM | GI50 (OVCAR-3 ovarian) 61.7 nM | GI50 (NCI/ADR-RES ovarian) 206 nM | GI50 (786-0 renal) 287 nM
> 100000 nM: TGI (HL-60(TB) leukemia) | TGI (K-562 leukemia) | TGI (SN12C renal) | TGI (NCI-H226 lung) | TGI (NCI-H23 lung) | TGI (MDA-MB-231 breast) | TGI (SNB-75 CNS) | TGI (COLO 205 colon) | TGI (T-47D breast) | TGI (PC-3 prostate) | TGI (MOLT-4 leukemia) | TGI (SR leukemia) | TGI (IGROV1 ovarian) | TGI (UO-31 renal) | TGI (LOX IMVI melanoma) | TGI (M14 melanoma) | TGI (HCT-116 colon) | TGI (KM12 colon) | TGI (SNB-19 CNS) | TGI (MCF7 breast) | TGI (SF-268 CNS) | TGI (HCT-15 colon) | TGI (HOP-62 NSCLC) | TGI (DU-145 prostate) | TGI (BT-549 breast) | TGI (OVCAR-8 ovarian) | TGI (EKVX NSCLC) | TGI (SK-OV-3 ovarian) | TGI (SK-MEL-2 melanoma) | TGI (HT29 colon) | TGI (UACC-257 melanoma) | TGI (SK-MEL-28 melanoma) | TGI (UACC-62 melanoma) | TGI (A498 renal) | TGI (U251 CNS) | TGI (NCI-H460 lung) | TGI (OVCAR-4 ovarian) | TGI (A549 NSCLC) | TGI (ACHN renal) | TGI (HOP-92 NSCLC) | TGI (SW-620 colon)
1760 nM: TGI (SF-539 CNS)
278 nM: TGI (OVCAR-3 ovarian)
5640 nM: TGI (HCC-2998 colon)
> 23500 nM: TGI (RPMI-8226 leukemia)
> 33500 nM: TGI (SK-MEL-5 melanoma)
92.3 nM: TGI (MDA-MB-435)
940 nM: TGI (NCI/ADR-RES ovarian)
400 nM: TGI (SF-295 CNS)
5650 nM: TGI (NCI-H522 lung)
